Assays:
Format in all cases: in vivo
[1] = tested on: diamondback moth (Plutella xylostella); assay: Insecticidal effect on diamondback moth (Test Example 1); conditions: for Insecticidal effect on diamondback moth (Test Example 1), judged grade: mortality judged according to the criterion shown in Test Example 1; for Insecticidal effect, Test Example 1 / Insecticidal effect (Test Example 1), judged from mortality: diamondback moth; for Insecticidal effect (Test Example 1), judged from mortality: judged by the criterion of Test Example 1
Outline: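 Oviposition by adults on Chinese cabbage seedling; immersion; air-dry; 25° C room. Count of hatched larvae at day 6 post-immersion → mortality → effect graded by criterion. Triplicate, 10 insects/group.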

[2] = tested on: common cutworm (Spodoptera Litura); assay: Insecticidal effect on common cutworm (Test Example 2); conditions: 500 ppm, 25° C.; for Insecticidal effect on common cutworm (Test Example 2), judged grade / Insecticidal effect (Test Example 2), judged from mortality: cabbage leaf dip; for Insecticidal effect on common cutworm (Test Example 2), judged grade: second-instar larvae; for Insecticidal effect on common cutworm (Test Example 2), judged grade / Insecticidal effect, Test Example 2: eight days after inoculation; for Insecticidal effect, Test Example 2: cabbage leaf immersed; for Insecticidal effect (Test Example 2), judged from mortality: 8 days after inoculation
Outline: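 Air-dried treated material was placed in a closed dish with second-instar larvae and held at 25° C. Dead and live insects were counted eight days after inoculation, and mortality was calculated and scored against a fixed insecticidal-effect criterion. Three replicate groups of 10 insects were used.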

[3] = tested on: rice leafroller (Cnaphalocrocis medinalis); assay: Insecticidal effect on rice leafroller (Test Example 3); conditions: 500 ppm, 25° C., humidity 70%; for Insecticidal effect on rice leafroller (Test Example 3), judged grade / Insecticidal effect (Test Example 3), judged from mortality: rice lamina dip; for Insecticidal effect on rice leafroller (Test Example 3), judged grade: third-instar larvae; for Insecticidal effect on rice leafroller (Test Example 3), judged grade / Insecticidal effect, Test Example 3: four days after inoculation; for Insecticidal effect, Test Example 3: rice lamina immersed; for Insecticidal effect (Test Example 3), judged from mortality: 4 days after inoculation
Outline: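 Insecticidal effect is judged by a predefined criterion from dead/alive counts four days after infesting air-dried lamina with third-instar larvae, kept on moistened filter paper at 25° C, 70% humidity.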

[4] = mortality judged by criterion of Test Example 1
[5] = common cutworm second-instar larvae
[6] = rice leafroller third-instar larvae
[7] = second-instar larvae of common cutworm
[8] = third-instar larvae of rice leafroller
[9] = judged by the mortality criterion of Test Example 1

CC(C)NC(=O)c1cccc([N+](=O)[O-])c1C(=O)Nc1ccc(C(F)(F)C(F)(F)C(F)(F)F)cc1Cl [compound 741]
Insecticidal effect on diamondback moth (Test Example 1), judged grade [1]: A (100) | Insecticidal effect on common cutworm (Test Example 2), judged grade [2]: A (100) | Insecticidal effect on rice leafroller (Test Example 3), judged grade [3]: A (100)

CC(C)(C)NC(=O)c1c(Cl)cccc1C(=O)Nc1ccc(C(O)(C(F)(F)F)C(F)(F)F)cc1 [compound 1053]
Insecticidal effect, Test Example 1 [1, 4]: A (100) | Insecticidal effect, Test Example 2 [2, 5]: A (100) | Insecticidal effect, Test Example 3 [3, 6]: A (100)

CCCNC(=O)c1c(I)cccc1C(=O)Nc1ccc(OC(F)F)cc1C [compound 1450]
Insecticidal effect (Test Example 1), judged from mortality [1]: A (100) | Insecticidal effect (Test Example 2), judged from mortality [2, 7]: A (100) | Insecticidal effect (Test Example 3), judged from mortality [3, 8]: A (100)

Cc1cc(Sc2ccc(Cl)cc2)ccc1NC(=O)c1cccc(F)c1C(=O)NC(C)C [compound 522]
Insecticidal effect on diamondback moth (Test Example 1), judged grade [1]: A (100) | Insecticidal effect on common cutworm (Test Example 2), judged grade [2]: D (79-50) | Insecticidal effect on rice leafroller (Test Example 3), judged grade [3]: A (100)

Cc1cc(C(F)(F)F)ccc1NC(=O)c1cccc(Cl)c1C(=O)NC(C)C [compound 127]
Insecticidal effect, Test Example 1 [1, 9]: A (100) | Insecticidal effect, Test Example 2 [2, 7]: A (100) | Insecticidal effect, Test Example 3 [3, 8]: A (100)

CC(C)(C)NC(=O)c1ccccc1C(=O)Nc1ccc2c(c1)OC(F)(F)C(F)O2 (stereo not drawn) [compound 1165]
Insecticidal effect, Test Example 1 [1, 4]: A (100) | Insecticidal effect, Test Example 2 [2, 5]: A (100) | Insecticidal effect, Test Example 3 [3, 6]: A (100)

CC(C)NC(=O)c1c(I)cccc1C(=O)Nc1ccc(C(F)(F)C(F)(F)F)cc1Br [compound 1580]
Insecticidal effect (Test Example 1), judged from mortality [1]: A (100) | Insecticidal effect (Test Example 2), judged from mortality [2, 7]: A (100) | Insecticidal effect (Test Example 3), judged from mortality [3, 8]: A (100)

Cc1cc(I)ccc1NC(=O)c1cccc([N+](=O)[O-])c1C(=O)NC(C)C [compound 673]
Insecticidal effect on diamondback moth (Test Example 1), judged grade [1]: A (100) | Insecticidal effect on common cutworm (Test Example 2), judged grade [2]: D (79-50) | Insecticidal effect on rice leafroller (Test Example 3), judged grade [3]: D (79-50)

Cc1cc(C(F)(F)C(F)(F)F)ccc1NC(=O)c1cccc(Cl)c1C(=O)NC(C)(C)C#Cc1ccccn1 [compound 1587]
Insecticidal effect (Test Example 1), judged from mortality [1]: A (100) | Insecticidal effect (Test Example 2), judged from mortality [2, 7]: A (100) | Insecticidal effect (Test Example 3), judged from mortality [3, 8]: A (100)

CCCN(CCC)C(=O)c1c(I)cccc1C(=O)Nc1ccc(C(F)(F)C(F)(F)F)cc1C [compound 1044]
Insecticidal effect, Test Example 1 [1, 4]: A (100) | Insecticidal effect, Test Example 2 [2, 5]: A (100) | Insecticidal effect, Test Example 3 [3, 6]: A (100)

CCC(C)NC(=O)c1c(Cl)cccc1C(=O)Nc1ccc(C(F)(F)C(F)(F)F)cc1F (stereo not drawn) [compound 1498]
Insecticidal effect (Test Example 1), judged from mortality [1]: A (100) | Insecticidal effect (Test Example 2), judged from mortality [2, 7]: A (100) | Insecticidal effect (Test Example 3), judged from mortality [3, 8]: A (100)

Cc1cc(C(F)(F)C(F)(F)F)ccc1NC(=O)c1cccc(I)c1C(=O)NC(C)(C)CO [compound 1464]
Insecticidal effect (Test Example 1), judged from mortality [1]: A (100) | Insecticidal effect (Test Example 2), judged from mortality [2, 7]: A (100) | Insecticidal effect (Test Example 3), judged from mortality [3, 8]: A (100)

COCCNC(=O)c1c(I)cccc1C(=O)Nc1ccc(C(F)(F)C(F)(F)F)cc1C [compound 981]
Insecticidal effect, Test Example 1 [1, 4]: A (100) | Insecticidal effect, Test Example 2 [2, 5]: A (100) | Insecticidal effect, Test Example 3 [3, 6]: A (100)

CC(C)(C)NC(=O)c1c(Cl)cccc1C(=O)Nc1ccc(C(F)(F)C(F)(F)F)cc1Cl [compound 1449]
Insecticidal effect (Test Example 1), judged from mortality [1]: A (100) | Insecticidal effect (Test Example 2), judged from mortality [2, 7]: A (100) | Insecticidal effect (Test Example 3), judged from mortality [3, 8]: A (100)

CC(C)NC(=O)c1c(Br)cccc1C(=O)Nc1ccc(OC(F)(F)F)cc1 [Compound No. 262, 3-bromo-N^1-(4-trifluoromethoxyphenyl)-N^2-isopropylphthalic acid diamide]
Insecticidal effect, Test Example 1 [1, 9]: A (100) | Insecticidal effect, Test Example 2 [2, 7]: A (100) | Insecticidal effect, Test Example 3 [3, 8]: D (79-50)

Cc1c(Cl)cccc1NC(=O)c1cccc([N+](=O)[O-])c1C(=O)NC(C)C [compound 663]
Insecticidal effect on diamondback moth (Test Example 1), judged grade [1]: A (100) | Insecticidal effect on common cutworm (Test Example 2), judged grade [2]: A (100) | Insecticidal effect on rice leafroller (Test Example 3), judged grade [3]: D (79-50)

Cc1c(NC(=O)c2ccccc2C(=O)NC(C)C)cccc1OC(F)(F)C(F)Cl (stereo not drawn) [compound 61]
Insecticidal effect, Test Example 1 [1, 9]: A (100) | Insecticidal effect, Test Example 2 [2, 7]: B (99-90) | Insecticidal effect, Test Example 3 [3, 8]: A (100)

CCc1cc(C(F)(F)C(F)(F)F)ccc1NC(=O)c1cccc(I)c1C(=O)NC(C)C [compound 1017]
Insecticidal effect, Test Example 1 [1, 4]: A (100) | Insecticidal effect, Test Example 2 [2, 5]: A (100) | Insecticidal effect, Test Example 3 [3, 6]: A (100)

CC(C)NC(=O)c1c(C(=O)Nc2ccc3c(c2)OC(F)(F)O3)cccc1[N+](=O)[O-] [compound 1100]
Insecticidal effect, Test Example 1 [1, 4]: A (100) | Insecticidal effect, Test Example 2 [2, 5]: C (89-80) | Insecticidal effect, Test Example 3 [3, 6]: A (100)

Cc1cc(C(F)(C(F)(F)F)C(F)(F)F)ccc1NC(=O)c1ccc(Cl)c(Cl)c1C(=O)NC(C)C [compound 1223]
Insecticidal effect, Test Example 1 [1, 4]: A (100) | Insecticidal effect, Test Example 2 [2, 5]: A (100) | Insecticidal effect, Test Example 3 [3, 6]: A (100)

Cc1cc(OC(F)(F)C(F)F)ccc1NC(=O)c1ccc(I)cc1C(=O)NC(C)C [compound 1248]
Insecticidal effect, Test Example 1 [1, 4]: A (100) | Insecticidal effect, Test Example 2 [2, 5]: A (100) | Insecticidal effect, Test Example 3 [3, 6]: A (100)

Cc1c(NC(=O)c2cccc(I)c2C(=O)NC(C)C)cccc1C(F)(F)F [compound 370]
Insecticidal effect, Test Example 1 [1, 9]: A (100) | Insecticidal effect, Test Example 2 [2, 7]: A (100) | Insecticidal effect, Test Example 3 [3, 8]: A (100)

Cc1cc(C(F)(F)C(F)(F)F)ccc1NC(=O)c1ccc(Cl)cc1C(=O)NC(C)(C)C [compound 1278]
Insecticidal effect, Test Example 1 [1, 4]: A (100) | Insecticidal effect, Test Example 2 [2, 5]: A (100) | Insecticidal effect, Test Example 3 [3, 6]: A (100)

CC(C)NC(=O)c1c(C(=O)Nc2ccc(C(F)(C(F)(F)F)C(F)(F)F)cc2Cl)cccc1[N+](=O)[O-] [compound 703]
Insecticidal effect on diamondback moth (Test Example 1), judged grade [1]: A (100) | Insecticidal effect on common cutworm (Test Example 2), judged grade [2]: A (100) | Insecticidal effect on rice leafroller (Test Example 3), judged grade [3]: A (100)

CNC(=O)c1c(I)cccc1C(=O)Nc1ccc(C(F)(F)C(F)(F)F)cc1C [compound 1311]
Insecticidal effect, Test Example 1 [1, 4]: A (100) | Insecticidal effect, Test Example 2 [2, 5]: A (100) | Insecticidal effect, Test Example 3 [3, 6]: A (100)

CCC(C)(C)NC(=O)c1c(F)cccc1C(=O)Nc1ccc(C(F)(F)C(F)(F)F)cc1C [compound 1152]
Insecticidal effect, Test Example 1 [1, 4]: A (100) | Insecticidal effect, Test Example 2 [2, 5]: A (100) | Insecticidal effect, Test Example 3 [3, 6]: A (100)

Cc1cc(OC(F)F)ccc1NC(=O)c1cccc(F)c1C(=O)NC(C)C [compound 500]
Insecticidal effect on diamondback moth (Test Example 1), judged grade [1]: A (100) | Insecticidal effect on common cutworm (Test Example 2), judged grade [2]: B (99-90) | Insecticidal effect on rice leafroller (Test Example 3), judged grade [3]: A (100)

Cc1cc(C(F)(F)C(F)(F)F)ccc1NC(=O)c1cccc(F)c1C(=O)NC(C)(C)C [compound 1505]
Insecticidal effect (Test Example 1), judged from mortality [1]: A (100) | Insecticidal effect (Test Example 2), judged from mortality [2, 7]: A (100) | Insecticidal effect (Test Example 3), judged from mortality [3, 8]: A (100)

Cc1cc(C(F)(F)C(F)(F)F)ccc1NC(=O)c1cccc(Cl)c1C(=O)NCc1ccccc1 [compound 1307]
Insecticidal effect, Test Example 1 [1, 4]: A (100) | Insecticidal effect, Test Example 2 [2, 5]: A (100) | Insecticidal effect, Test Example 3 [3, 6]: A (100)

Cc1cc(OC(F)F)ccc1NC(=O)c1cccc([N+](=O)[O-])c1C(=O)NC(C)C [compound 696, N^1-(4-difluoromethoxy-2-methylphenyl)-N^2-isopropyl-3-nitrophthalic acid diamide]
Insecticidal effect on diamondback moth (Test Example 1), judged grade [1]: A (100) | Insecticidal effect on common cutworm (Test Example 2), judged grade [2]: A (100) | Insecticidal effect on rice leafroller (Test Example 3), judged grade [3]: A (100)

Cc1cc(OC(F)F)ccc1NC(=O)c1cccc(Cl)c1C(=O)N[C@H](C)c1ccccc1 [compound 1458]
Insecticidal effect (Test Example 1), judged from mortality [1]: A (100) | Insecticidal effect (Test Example 2), judged from mortality [2, 7]: A (100) | Insecticidal effect (Test Example 3), judged from mortality [3, 8]: A (100)

Cc1cc(OC(F)F)ccc1NC(=O)c1cccc(Cl)c1C(=O)NC(C)C [compound 138]
Insecticidal effect, Test Example 1 [1, 9]: A (100) | Insecticidal effect, Test Example 2 [2, 7]: A (100) | Insecticidal effect, Test Example 3 [3, 8]: A (100)

CC(C)NC(=O)c1c(I)cccc1C(=O)Nc1ccc2nc(C(F)(F)C(F)(F)C(F)(F)F)oc2c1 [compound 1636]
Insecticidal effect (Test Example 1), judged from mortality [1]: A (100) | Insecticidal effect (Test Example 2), judged from mortality [2, 7]: D (79-50) | Insecticidal effect (Test Example 3), judged from mortality [3, 8]: A (100)

CC(C)(C)NC(=O)c1c(I)cccc1C(=O)Nc1ccc2c(c1Cl)OC(F)(F)C(F)(F)O2 [compound 1644]
Insecticidal effect (Test Example 1), judged from mortality [1]: A (100) | Insecticidal effect (Test Example 2), judged from mortality [2, 7]: A (100) | Insecticidal effect (Test Example 3), judged from mortality [3, 8]: A (100)

Source: patent US6362369B1, “Phthalic acid diamide derivatives fluorine-containing aniline compounds as starting material, agricultural and horticultural insecticides, and a method for application of the insecticides” (Nihon Nohyaku Co., Ltd., priority 1997, dated 2002)
